Results: PubChem BioAssay (NCI)
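Grown in 96-well plates, cells were treated for 48 hours with each compound at five concentrations. Insufficient inhibition: endpoint recorded as highest concentration tested. Here, GI50 denotes the concentration required for 50% inhibition of growth. TGI: concentration producing complete growth inhibition.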 Where a SMILES comes first, the peptide text is derived from it. [ ]: non-standard residue; d: D form. The star is where a group is joined. Cbz = O=C(OCc1ccccc1)*; Boc = CC(C)(C)OC(=O)*; Aib = CC(C)(N)C(=O)O; OBn = c1ccc(CO*)cc1; OtBu = CC(C)(C)O*; βAla = NCCC(=O)O

Assays:
Assay in all cases: DTP human tumour cell line panel, 48 h
[1] = system: A549 NSCLC
[2] = system: HT29 colon
[3] = system: MCF7 breast
[4] = system: MOLT-4 leukemia
[5] = system: NCI-H522 lung
[6] = system: NCI/ADR-RES ovarian
[7] = system: OVCAR-5 ovarian
[8] = system: RPMI-8226 leukemia
[9] = system: SN12C renal
[10] = system: CCRF-CEM leukemia

SMILES	TGI [1] [µM]	TGI [2] [µM]	TGI [3] [µM]	TGI [4] [µM]	TGI [5] [µM]	TGI [6] [µM]	TGI [7] [µM]	TGI [8] [µM]	TGI [9] [µM]	TGI [10] [µM]	GI50 [6] [µM]	GI50 [1] [µM]	GI50 [10] [µM]	GI50 [3] [µM]	GI50 [4] [µM]	GI50 [8] [µM]
CCCCSc1n/c(=C\c2ccc(N(C)C)cc2)c2nnnn12	> 100	> 100	> 100	> 100	> 100	> 100	> 100	> 100	> 100							
NC(CCCCNC(=O)OCc1ccccc1)C(=O)NC(CCCCNC(=O)OCc1ccccc1)C(=O)ON1C(=O)CCC1=O (centres undefined)	> 100	> 100	> 100	> 100			> 100	> 100	> 100	> 100						
CC(C)(C)OC(=O)CC(NC(=O)OC(C)(C)C)C(=O)NC(CCCCNC(=O)OCc1ccccc1)C(=O)NC(C)(C)C(=O)NCCC(=O)OCc1ccccc1 (centres undefined) (Boc-D(OtBu)K(Cbz)[Aib][βAla]-OBn; configuration not given here)	> 100	> 100	> 100	> 100	> 100	> 100	> 100	> 100	> 100							
COc1cc2ccnc3c2c(c1O)N(C)C=C3	50.3		> 91.6	> 100		54.5	33.9	> 100	> 61.2	> 100						
CSC1SCC2C(=O)N(C)C3(CC3C)C(=O)OCC(NC(=O)c3nc4ccccc4cc3O)C(=O)NC(C)C(=O)N(C)C1C(=O)N(C)C1(CC1C)C(=O)OCC(NC(=O)c1nc3ccccc3cc1O)C(=O)NC(C)C(=O)N2C (centres undefined)	20.1	4.21	10.3			72.7		< 0.0001		< 0.0001	0.124					
O=C(NCCO)c1ccc(Cl)cc1	> 100	> 100		> 100	> 100	> 100	> 100		> 100	90.2						
COC(=O)c1cncc2c1CC1C3(C(=O)OC)C=NC(C4C(CO)=CCC43)C21C (centres undefined)	> 100	> 100	> 100	> 100	> 100	> 100	> 100		> 100	> 100						
COC(=O)[C@@H]1N2C(=S)N(c3ccccc3)C(=O)[C@H]2SC1(C)C	> 100	> 100	> 100	> 100	> 100	> 100	> 100	> 100	> 100							
COc1ccc(CNc2nc(NCc3ccc(OC)cc3)nc(N3CCOCC3)n2)cc1	> 100	9.63	> 100	10.9	> 100	13	41.6	4.03	> 100							
COC(OC)C(O)C1OC=CC1n1cnc2c(N)ncnc21 (centres undefined)		> 100	> 100	> 100		> 100		> 100	> 100	> 100						
Cc1ccc2c(c1)OC1Nc3ccccc3C1=C2O (centres undefined)	> 100	> 100	45.9	> 100	> 100	86.3	> 100	> 100	93.4							
CC(C)n1c(=O)n(-c2ccccc2)n(C(C)(C)C)c1=O	> 100	> 100	> 100	> 100		> 100	> 100		> 100	> 100						
C=C1C[C@]23C[C@@]1(O)CC[C@H]2[C@@]12C=C[C@H](O)[C@@](C)(C(=O)O1)[C@H]2[C@@H]3C(=O)O	> 100	> 100		> 100	> 100		> 100	> 100	> 100	> 100						
CN1CC(c2ccccc2)N(CCCCN2CC(c3ccccc3)N(C)CC2c2ccccc2)CC1c1ccccc1 (centres undefined)	> 100	> 100	> 100	> 100		> 100	> 100		> 100	> 100						
O=C1[C@@H]2Cc3c([nH]c4ccccc34)C(C3CCCCC3)N2C(=O)[C@@H]2CCCN12 (some centres undefined)	> 100	73.4	> 100	57	63.1	78.7	> 100	51	63.4							
O=C(NCCNCCO)N/N=C/c1ccc(Cl)cc1	> 100	> 100	> 100	> 100	> 100	> 100	> 100		> 100	> 100						
COc1c/c(=C2/C=c3ccccc3=N2)[nH]/c1=C/c1[nH]c(C)cc1C	> 100		2.58	2.95				1.95		> 100		0.219	0.0313	0.0647	0.0293	0.0533
